Results as given in ChEMBL document CHEMBL1156895 (Bioorg Med Chem Lett, 2010).
Active and inactive are the calls of the source. The rule behind the calls is not given here.

Tests used:
[1] = system: Rattus norvegicus; experiment: Antiinflammatory activity in po dosed rat assessed as inhibition of carrageenan-induced paw edema; format: functional
[2] = Induction of NO release in phosphate buffer at pH 7.4; format: physicochemical
[3] = Selectivity ratio of IC50 for ovine COX1 to IC50 for human recombinant COX2
[4] = molecular target: T1, Prostaglandin G/H synthase 1 (Ovis aries) (UniProt P05979); experiment: Inhibition of ovine COX1 at 100 uM by enzyme immunoassay
T1 sequence (whole entry): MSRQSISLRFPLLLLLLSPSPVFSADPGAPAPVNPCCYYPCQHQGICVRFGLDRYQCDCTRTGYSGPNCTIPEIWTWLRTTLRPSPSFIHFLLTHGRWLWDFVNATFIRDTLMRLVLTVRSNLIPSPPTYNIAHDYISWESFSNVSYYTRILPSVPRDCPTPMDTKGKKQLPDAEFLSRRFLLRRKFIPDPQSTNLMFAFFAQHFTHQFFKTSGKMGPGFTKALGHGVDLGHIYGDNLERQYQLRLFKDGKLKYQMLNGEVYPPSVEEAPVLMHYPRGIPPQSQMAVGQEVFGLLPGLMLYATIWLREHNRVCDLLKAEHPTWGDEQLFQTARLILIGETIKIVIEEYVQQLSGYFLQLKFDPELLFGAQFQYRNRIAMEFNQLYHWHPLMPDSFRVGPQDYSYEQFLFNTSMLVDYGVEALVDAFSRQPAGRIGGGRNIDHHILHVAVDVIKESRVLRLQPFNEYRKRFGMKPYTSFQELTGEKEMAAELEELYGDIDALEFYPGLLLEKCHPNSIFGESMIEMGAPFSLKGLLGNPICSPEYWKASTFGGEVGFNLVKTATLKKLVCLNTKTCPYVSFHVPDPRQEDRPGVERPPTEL

[5] = Induction of NO release in presence of 5 mM L-cysteine; format: physicochemical
[6] = molecular target: T2, Prostaglandin G/H synthase 1 (Ovis aries, UniProt P05979)
T2 sequence (P05979 whole entry): T1 sequence (whole entry)
Description: Inhibition of ovine COX1 by enzyme immunoassay

[7] = species: Rattus norvegicus; settings: 100 mg/kg
[8] = species: Rattus norvegicus; experiment: animal or person; settings: po, read-out: INH

Row | Structure (SMILES) | ED50 [1] [mg/kg] | Activity [2] [%] | Ratio IC50 [3] | inhibition [4] | Activity [5] [%] | IC50 [6] [µM] | inhibition [7] | inhibition in vivo at 100 mg/kg [8] [%]
1 | CS(=O)(=O)c1ccc(-n2nc(C(F)(F)F)cc2C2CCN(CCCCO[N+](=O)[O-])CC2)cc1 | 132 | 3.8 | > 6 | inactive | 8.4 | > 100 |  | 
2 | CC(C)Cc1ccc(C(C)C(=O)O)cc1 (stereo unspecified) [IBUPROFEN] | 67.4 |  |  |  |  |  |  | 
3 | O=[N+]([O-])OCC(CO[N+](=O)[O-])O[N+](=O)[O-] [NITROGLYCERIN] |  | 2.8 |  |  | 10.1 |  |  | 
4 | NS(=O)(=O)c1ccc(-n2nc(C(F)(F)F)cc2C2=CCN(CCCCO[N+](=O)[O-])CC2)cc1 |  | 5.8 |  |  | 7.1 | 16.2 | inactive | 
5 | NS(=O)(=O)c1ccc(-n2nc(C(F)(F)F)cc2C2CCN(CCCCO[N+](=O)[O-])CC2)cc1 |  | 2.4 |  |  | 3.1 | 19.8 |  | 9
6 | CS(=O)(=O)c1ccc(-n2nc(C(F)(F)F)cc2C2=CCN(CCCCO[N+](=O)[O-])CC2)cc1 | 118 | 3.1 |  |  | 3.8 | 34.7 |  | 
